Test results from EPA's ToxRefDB 2.

Assays:
[1] = test system: rat; details: Prenatal developmental toxicity study; sprague dawley; Oral; Gavage/Intubation; dose end: 15 GD; group: maternal; systemic / in life observation / clinical signs / post-dosing rooting in bedding + systemic / in life observation / food consumption / food …
[2] = test system: rat; details: Prenatal developmental toxicity study, sprague dawley, Oral, Gavage/Intubation, dose end: 15 GD
[3] = test system: rat; details: Sub-acute repeat dose toxicity, sprague dawley, Oral, Gavage/Intubation, dose end: 14 day, group: systemic
[4] = test system: primate; details: Sub-acute repeat dose toxicity, Oral, Gavage/Intubation, dose end: 7 day, group: systemic
[5] = test system: primate; details: Sub-acute repeat dose toxicity, Oral, Gavage/Intubation, dose end: 14 day, group: systemic
[6] = test system: rat; details: Sub-acute repeat dose toxicity, Oral, Gavage/Intubation, dose end: 7 day, group: systemic
[7] = test system: rat; details: Subchronic oral toxicity in rodents, sprague dawley, Gavage/Intubation, dose end: 90 day, group: systemic, systemic / pathology microscopic / stomach / hyperkeratosis + systemic / pathology microscopic / stomach / hyperplasia
[8] = test system: dog; details: Subchronic oral toxicity in nonrodent, beagle, Feed, dose end: 90 day, group: systemic
[9] = test system: rat; details: Subchronic oral toxicity in rodents, sprague dawley, Gavage/Intubation, dose end: 92 day, group: systemic, systemic / pathology microscopic / stomach / thickened
[10] = test system: rat; details: Subchronic oral toxicity in rodents, sprague dawley, Feed, dose end: 13 week, group: systemic
[11] = test system: rat; details: Prenatal developmental toxicity study, sprague dawley, Oral, Gavage/Intubation, dose end: 16 GD
[12] = test system: dog; details: Subchronic oral toxicity in nonrodent, beagle, Feed, dose end: 90 day, group: systemic; remark: listed apart in the source
[13] = test system: mouse; details: Subchronic oral toxicity in rodents, other, Feed, dose end: 90 day, group: systemic
[14] = test system: mouse; details: Carcinogenicity, other, Oral, Feed, dose end: 18 month, group: systemic
[15] = test system: rat; details: Carcinogenicity, wistar, Oral, Feed, dose end: 24 month, group: systemic
[16] = test system: rabbit; details: Prenatal developmental toxicity study, himalayan, Oral, Gavage/Intubation, dose end: 28 GD
[17] = test system: rat; details: Multigenerational reproductive toxicity study, wistar, Oral, Feed, dose end: 2 generation
[18] = test system: dog; details: Chronic toxicity, beagle, Oral, Feed, dose end: 52 week, group: systemic
[19] = test system: rat; details: Subchronic oral toxicity in rodents, wistar, Feed, dose end: 90 day, group: systemic, systemic / organ weight / thyroid gland / absolute + systemic / organ weight / thyroid gland / relative to body weight + systemic / …
[20] = test system: rat; details: Chronic toxicity, wistar, Oral, Feed, dose end: 104 week, group: systemic
[21] = group: developmental, developmental / developmental malformation / bone / [other]
[22] = group: maternal, systemic / in life observation / body weight / body weight + systemic / in life observation / clinical signs / [other] + systemic / in life …
[23] = systemic / clinical chemistry / albumin / albumin + systemic / clinical chemistry / globulins / globulins + systemic / pathology microscopic…
[24] = systemic / clinical chemistry / phosphorus / phosphorus + systemic / clinical chemistry / sodium / sodium + systemic / clinical chemistry / …
[25] = systemic / pathology microscopic / vagina / prolapse + systemic / in life observation / clinical signs / vomitting + systemic / in life …
[26] = systemic / in life observation / body weight / body weight
[27] = systemic / in life observation / body weight / body weight + systemic / clinical chemistry / chloride / chloride + systemic / clinical …
[28] = systemic / in life observation / mortality / mortality + systemic / pathology microscopic / stomach / degeneration + systemic / clinical …
[29] = systemic / in life observation / body weight / body weight + systemic / in life observation / food consumption / food consumption + systemic…
[30] = systemic / in life observation / body weight / body weight + systemic / in life observation / food consumption / food efficiency + systemic…
[31] = group: developmental, developmental / developmental malformation / bone / incomplete ossification + developmental / developmental malformation / bone / unossified…
[32] = group: maternal, systemic / in life observation / body weight / body weight gain + systemic / in life observation / food consumption / food consumption + …
[33] = systemic / clinical chemistry / alkaline phosphatase (alp/alk) / alkaline phosphatase (alp/alk) + systemic / organ weight / liver / absolute…
[34] = systemic / hematology / blood clotting / blood clotting - prothrombin time
[35] = systemic / organ weight / liver / absolute
[36] = systemic / organ weight / liver / absolute + systemic / organ weight / liver / relative to body weight + systemic / pathology microscopic / …
[37] = systemic / in life observation / body weight / body weight + systemic / organ weight / liver / absolute + systemic / organ weight / liver / …
[38] = group: developmental, developmental / developmental malformation / bone / incomplete ossification
[39] = group: maternal, reproductive / reproductive performance / aborted / aborted + reproductive / reproductive performance / premature delivery / premature …
[40] = group: offspring, systemic / in life observation / body weight / offspring (pup) weight + systemic / in life observation / body weight / offspring (pup) …
[41] = group: offspring, systemic / organ weight / thymus / absolute
[42] = group: parental, systemic / pathology microscopic / liver / degeneration + systemic / pathology microscopic / liver / hypertrophy
[43] = group: reproductive, reproductive / reproductive performance / implantations / implantations
[44] = systemic / clinical chemistry / alanine aminotransferase (alt/sgpt) / alanine aminotransferase (alt/sgpt) + systemic / clinical chemistry / …
[45] = systemic / organ weight / thyroid gland / absolute + systemic / pathology microscopic / thyroid gland / hyperplasia + systemic / pathology …

## CSc1nc(NC2CC2)nc(NC(C)(C)C)n1 [Cybutryne]
[1]
  LEL: 150 mg/kg/day
  LOAEL: 150 mg/kg/day
  NEL: 50 mg/kg/day
  NOAEL: 50 mg/kg/day
[2]; [21]
  LEL: 300 mg/kg/day
  LOAEL: > 300 mg/kg/day
  NEL: 150 mg/kg/day
  NOAEL: ≥ 300 mg/kg/day
[2]; group: maternal, systemic / in life observation / body weight / body weight + systemic / in life observation / body weight / body weight gain
  LOAEL: 300 mg/kg/day
[2]; group: maternal, systemic / in life observation / body weight / body weight + systemic / in life observation / clinical signs / [other]
  LEL: 150 mg/kg/day
[2]; [22]
  NEL: 50 mg/kg/day
  NOAEL: 150 mg/kg/day

## CCn1nc(C)c2c1C(=O)NCC(c1ccc(O)cc1)=N2
[3]; [23]
  LOAEL: > 80 mg/kg/day
  NOAEL: ≥ 80 mg/kg/day
[3]; systemic / organ weight / testes / absolute + systemic / pathology microscopic / blood vessel / inflammation + systemic / pathology …
  NEL: 20 mg/kg/day
[3]; systemic / organ weight / testes / absolute + systemic / pathology microscopic / heart / necrosis + systemic / pathology microscopic / …
  LEL: 40 mg/kg/day
[4]; [24]
  LOAEL: > 50 mg/kg/day
  NOAEL: ≥ 50 mg/kg/day
[4]; [25]
  LEL: 10 mg/kg/day
  NEL: < 10 mg/kg/day
[5]; [26]
  LEL: 5 mg/kg/day
  NEL: < 5 mg/kg/day
[5]; [27]
  LOAEL: > 20 mg/kg/day
  NOAEL: ≥ 20 mg/kg/day
[6]; [28]
  LOAEL: > 300 mg/kg/day
  NOAEL: ≥ 300 mg/kg/day
[6]; systemic / pathology microscopic / heart / fibrosis + systemic / pathology microscopic / heart / hemorrhage + systemic / pathology …
  LEL: 80 mg/kg/day

## O=c1[nH]sc2ccccc12 [1,2-Benzisothiazolin-3-one]
[7]
  LEL: 10 mg/kg/day
  LOAEL: > 10 mg/kg/day
  NOAEL: ≥ 10 mg/kg/day
[8]; systemic / in life observation / body weight / body weight + systemic / in life observation / food consumption / food consumption
  LOAEL: 89 mg/kg/day
[8]; [29]
  LEL: 89 mg/kg/day
  NEL: 38 mg/kg/day
  NOAEL: 38 mg/kg/day
[9]
  LEL: 10 mg/kg/day
  LOAEL: 10 mg/kg/day
  NEL: < 10 mg/kg/day
  NOAEL: < 10 mg/kg/day
[10]; [26]
  LEL: 69 mg/kg/day
  LOAEL: 69 mg/kg/day
[10]; [30]
  NEL: 15.3 mg/kg/day
  NOAEL: 15.3 mg/kg/day
[11]; [31]
  LOAEL: 100 mg/kg/day
  NEL: 10 mg/kg/day
  NOAEL: 40 mg/kg/day
[11]; group: developmental, developmental / developmental malformation / bone / unossified
  LEL: 40 mg/kg/day
[11]; group: maternal, systemic / in life observation / body weight / body weight gain + systemic / in life observation / food consumption / food consumption
  LOAEL: 100 mg/kg/day
[11]; [32]
  NEL: 10 mg/kg/day
  NOAEL: 40 mg/kg/day
[11]; group: maternal, systemic / in life observation / clinical signs / abnormal respiratory sounds
  LEL: 40 mg/kg/day

## O=C(Nc1ccccc1-c1ccc(Cl)cc1)c1cccnc1Cl [Boscalid]
[12]; [33]
  LOAEL: 78.1 mg/kg/day
  NOAEL: 7.6 mg/kg/day
[12]; [34]
  LEL: 8.1 mg/kg/day
  NEL: < 8.1 mg/kg/day
[13]; [35]
  LEL: 42 mg/kg/day
  NEL: < 42 mg/kg/day
[13]; [36]
  LOAEL: 788 mg/kg/day
  NOAEL: 197 mg/kg/day
[14]; [26]
  LOAEL: 331 mg/kg/day
[14]; [37]
  NEL: 13 mg/kg/day
  NOAEL: 65 mg/kg/day
[14]; systemic / in life observation / body weight / body weight + systemic / organ weight / liver / relative to body weight
  LEL: 65 mg/kg/day
[15]; systemic / in life observation / mortality / mortality + systemic / in life observation / body weight / body weight + systemic / in life …
  NEL: 1020 mg/kg/day
[15]; systemic / pathology microscopic / thyroid gland / hyperplasia + systemic / pathology microscopic / thyroid gland / hypertrophy
  LOAEL: 116 mg/kg/day
[15]; systemic / pathology microscopic / thyroid gland / hyperplasia + systemic / pathology microscopic / thyroid gland / hypertrophy + systemic…
  NOAEL: 23 mg/kg/day
[16]; [38]
  LEL: 1000 mg/kg/day
  LOAEL: > 1000 mg/kg/day
  NEL: 300 mg/kg/day
  NOAEL: ≥ 1000 mg/kg/day
[16]; [39]
  LEL: 1000 mg/kg/day
  LOAEL: 1000 mg/kg/day
  NEL: 300 mg/kg/day
  NOAEL: 300 mg/kg/day
[17]; [40]
  LOAEL: 124 mg/kg/day
  NOAEL: 12.3 mg/kg/day
[17]; [41]
  LEL: 12.3 mg/kg/day
  NEL: < 12.3 mg/kg/day
[17]; group: parental, systemic / pathology microscopic / liver / degeneration
  LOAEL: 1030 mg/kg/day
[17]; [42]
  NEL: 10.1 mg/kg/day
  NOAEL: 101 mg/kg/day
[17]; group: parental, systemic / pathology microscopic / liver / hypertrophy
  LEL: 101 mg/kg/day
[17]; [43]
  LEL: 10.7 mg/kg/day
  LOAEL: > 1060 mg/kg/day
  NEL: < 10.7 mg/kg/day
  NOAEL: ≥ 1060 mg/kg/day
[18]; systemic / clinical chemistry / alkaline phosphatase (alp/alk) / alkaline phosphatase (alp/alk) + systemic / organ weight / liver / absolute
  LOAEL: 57.4 mg/kg/day
[18]; [33]
  LEL: 57.4 mg/kg/day
  NEL: 21.8 mg/kg/day
  NOAEL: 21.8 mg/kg/day
[19]
  LEL: 137 mg/kg/day
  LOAEL: 137 mg/kg/day
  NEL: 34 mg/kg/day
  NOAEL: 34 mg/kg/day
[20]; [44]
  LEL: 5.9 mg/kg/day
  NEL: < 5.9 mg/kg/day
[20]; [45]
  LOAEL: 110 mg/kg/day
  NOAEL: 21.9 mg/kg/day
